In PubChem BioAssay (NCI):
Several values for one entry are separate records, joined by “and”; a condition that tells them apart may be missing. Equal entries are not always repeated.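 Growth conditions: 96-well plates. Treatment: test compound, 48 hours, 5 concentrations. Analysis: linear interpolation between bracketing concentrations; unreached endpoints set to highest concentration. GI50 = concentration required for 50% inhibition of growth. Definition used: TGI = concentration required for complete inhibition of growth.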

Tests used:
Test in all cases: NCI tumour cell line growth inhibition, 48 h
SK-MEL-5 melanoma = test system: SK-MEL-5 melanoma
HL-60(TB) leukemia = test system: HL-60(TB) leukemia
U251 CNS = test system: U251 CNS
MCF7 breast = test system: MCF7 breast
HT29 colon = test system: HT29 colon
MALME-3M melanoma = test system: MALME-3M melanoma
NCI-H226 lung = test system: NCI-H226 lung
SK-OV-3 ovarian = test system: SK-OV-3 ovarian
SF-539 CNS = test system: SF-539 CNS
HCT-15 colon = test system: HCT-15 colon

Row | Compound | TGI (SK-MEL-5 melanoma) | TGI (HL-60(TB) leukemia) [µM] | TGI (U251 CNS) | TGI (MCF7 breast) [µM] | TGI (HT29 colon) | TGI (MALME-3M melanoma) | TGI (NCI-H226 lung) | TGI (SK-OV-3 ovarian) | TGI (SF-539 CNS) | TGI (HCT-15 colon) | GI50 (SK-MEL-5 melanoma) | GI50 (HL-60(TB) leukemia) | GI50 (U251 CNS) | GI50 (MCF7 breast) | GI50 (HT29 colon) | GI50 (MALME-3M melanoma) | GI50 (NCI-H226 lung) | GI50 (SK-OV-3 ovarian) | GI50 (SF-539 CNS) | GI50 (HCT-15 colon)
1 | C/C(=N\Nc1ccc2ccccc2n1)c1ccccc1O | > 100 µM | > 100 | > 100 µM | > 100 | > 100 µM | > 100 µM | > 100 µM | > 57.6 µM | > 100 µM | > 100 µM | – | – | – | – | – | – | – | – | – | –
2 | CCCN(CCC)c1ccc(C=O)cc1 | 54.5 µM | > 84 | > 100 µM | > 100 | > 100 µM | > 100 µM | > 100 µM | > 100 µM | > 100 µM | > 100 µM | 20.7 µM | 27 µM | 42 µM | 36 µM | 52 µM | > 81.2 µM | 30 µM | > 100 µM | > 100 µM | > 84.2 µM
3 | O=C(/C=C/C=C/c1ccccc1)c1ccc(Nc2nc(Nc3ccccc3)nc(Nc3ccccc3)n2)cc1 | > 100 µM | > 100 | > 100 µM | > 100 | > 100 µM | > 100 µM | > 100 µM | > 100 µM | > 100 µM | > 100 µM | 13 µM | 28.7 µM | 63.7 µM | 17.7 µM | > 100 µM | > 100 µM | > 100 µM | > 100 µM | 61.6 µM | > 100 µM
4 | Cn1cc(C2=C(c3c4n(c5ccccc35)CC(CN)C4)C(=O)NC2=O)c2ccccc21 (configuration not stated) | 6.89 µM | 9.91 | 5.77 µM | 4.85 | 11.8 µM | 8.52 µM | 18 µM | 14.7 µM | 6.24 µM | 15.8 µM | 3.53 µM | 3.35 µM | 2.61 µM | 1.4 µM | 3.04 µM | 4.17 µM | 3.93 µM | 1.93 µM | 2.99 µM | 4.33 µM
5 | O=C1Nc2ccccc2C1(c1ccc(O)c(F)c1)c1ccc(O)c(F)c1 | 29.9 µM | 42.6 | 48.6 µM | 2.81 | 48.5 µM | 46.6 µM | 39.7 µM | 52 µM | 36.8 µM | 34.4 µM | 14.7 µM | 15 µM | 14.5 µM | 0.27 µM | 22.7 µM | 13.7 µM | 11 µM | 21.1 µM | 12.6 µM | 8.34 µM
6 | CS(=O)(=O)N1CCN(Cc2cc3nc(-c4cccc5[nH]ncc45)nc(N4CCOCC4)c3s2)CC1 | > 100 µM | > 100 | > 100 µM | > 100 | > 100 µM | – | > 21.6 µM | 3.84 µM and 1.68 µM | – | > 100 µM | 1.11 µM and 0.537 µM | 0.121 µM and 0.052 µM | 1.05 µM and 0.684 µM | 0.0766 µM and 0.083 µM | 0.284 µM and 0.101 µM | 0.311 µM and 0.128 µM | 0.408 µM and 0.473 µM | 0.243 µM and 0.145 µM | 0.444 µM and 0.268 µM | 0.721 µM and 0.453 µM
7 | NC(=O)c1nnn(Cc2cc(Cl)c(C(=O)c3ccc(Cl)cc3)c(Cl)c2)c1N | > 9.09 µM and 32.7 µM | > 100 | > 9.09 µM and 38.1 µM | 32.9 | > 9.09 µM and 42 µM | > 9.09 µM and 44.1 µM | > 9.09 µM and 55.8 µM | > 52.9 µM | > 9.09 µM and 46.5 µM | > 9.09 µM and 39.7 µM | > 9.09 µM | > 9.09 µM | > 9.09 µM | – | > 9.09 µM | > 9.09 µM | > 9.09 µM | > 9.09 µM | > 9.09 µM | > 9.09 µM
